Reference: patent US7635714B2, “Methods of treating dyschezia” (priority 2002, dated 2009)

Legend:
healthy male volunteers = assay: Acceleratory effect on defecation in healthy volunteers (Phase I, repeated oral administration); type: in vivo, human
Protocol: The acceleratory effect of GM-611 on defecation was studied by repeated oral administration of GM-611 in Phase I trials. Healthy male volunteers, in groups of 6, were orally administered for 10 days with placebo or GM-611 (5 mg, 10 mg, 20 mg) on a three-times-a-day basis together with 150 mL water at 30 minutes before each meal, provided that the volunteers were administered once before breakfast on the first and tenth days. The volunteers were then monitored for their defecation during the period of administration. The acceleratory effect on defecation was assessed by the daily frequency of defecation, the number of days that at least one defecation was observed (the number of defecation days), and stool condition (watery diarrhea, muddy diarrhea, muddy soft stool, formed soft stool, normal stool, hard stool, very hard stool). It should be noted that in this test, the subjects were allocated at random to each test group and tested in a double-blind manner.

normal rabbits (Kbl:JW) = assay: Acceleratory effects on defecation in normal rabbits (stool weight, water content of stools); type: in vivo, rabbit
From the text: To study the difference of effects between GM-611 and a laxative, sennoside (sennoside solution (trade name), Taisho Pharm. Ind., Ltd.) was used as a laxative to compare with acceleratory effects of GM-611 on defecation. More specifically, normal rabbits were orally administered with GM-611 or sennoside and then measured for the weight and water content of stools. Normal rabbits (Kbl:JW), in groups of 13 to 15, were orally administered with vehicle (3 w/v % gum arabic suspension), GM-611 (1.25 mg/kg, 2.5 mg/kg, 5 mg/kg, 10 mg/kg), vehicle (purified water), or sennoside (12 mg/kg, 24 mg/kg, 48 mg/kg). The stool weight was then measured every 4 hours until 8 hours after administration. Also, their stools were collected, dried in a dry oven (at 120° C. for 24 hours or longer) and then the dry stool weight was measured to calculate the water content of stools (%) according to the following formula: ((wet stool weight [g]−dry stool weight [g]))/wet stool weight [g])×100.

[1] = compared with erythromycin; cited from earlier work
normal dogs (beagle) = assay: Acceleratory effect on defecation in normal dogs (time until the first defecation); type: in vivo, dog
Protocol: In addition to the studies in rabbits, the acceleratory effect of GM-611 on defecation was also studied in normal dogs. Five beagle dogs were each catheterized to insert an intragastric catheter (Chugai Pharmaceutical Co., Ltd., 8.3-9.9 kg, 2 males and 3 females). Each dog was fed with pellets (CD-5 (CLEA Japan, Inc.), about 250 g) at 9:00 a.m. and then monitored for its defecation immediately after feeding. One hour after feeding, the animals […] defecation within 1 hour were intragastrically administered via the catheter with vehicle (3 w/v % gum arabic suspension) or GM-611 (0.3 mg/kg, 1 mg/kg, 3 mg/kg) and then measured for the time until the first defecation after administration.

[2] = test system: rabbits with morphine-induced defecation dysfunction; assay: Improving effect on morphine-induced defecation dysfunction in rabbits (stool weight); type: in vivo, rabbit; details: morphine 1 mg/kg s.c.
Protocol: Effects on defecation dysfunction can be studied using an animal model with morphine-induced defecation dysfunction. To study the effect of GM-611 on defecation dysfunction, rabbits were subcutaneously administered with morphine (Anpec (trade name), Dainippon Pharmaceutical Co., Ltd.) to induce defecation dysfunction and then the stool weight was measured to evaluate the acceleratory effect of GM-611 on defecation in the model. Rabbits (Kbl:JW) were subcutaneously administered with vehicle (physiological saline) or morphine (1 mg/kg) and fed for 30 minutes (feeding stimulation), followed by oral administration of vehicle (3 w/v % gum arabic suspension) or GM-611 at a dose of 1.25 mg/kg, 2.5 mg/kg, 5 mg/kg, 10 mg/kg or 20 mg/kg. The stool weight for 2.5 hours after administration was measured (11 rabbits in each group) to examine the improving effect of GM-611 on morphine-induced defecation dysfunction.

CC[C@H]1OC(=O)[C@H](C)[C@@H](O[C@H]2C[C@@](C)(OC)[C@@H](O)[C@H](C)O2)[C@H](C)[C@@H](O[C@@H]2O[C@H](C)C[C@H](N(C)C(C)C)[C@H]2O)[C@@]2(C)CC(C)=C(O2)[C@H](C)C(=O)[C@]1(C)OC.CC[C@H]1OC(=O)[C@H](C)[C@@H](O[C@H]2C[C@@](C)(OC)[C@@H](O)[C@H](C)O2)[C@H](C)[C@@H](O[C@@H]2O[C@H](C)C[C@H](N(C)C(C)C)[C@H]2O)[C@@]2(C)CC(C)=C(O2)[C@H](C)C(=O)[C@]1(C)OC.O=C(O)/C=C/C(=O)O [GM-611, erythromycin, 8,9-didehydro-N-demethyl-9-deoxo-6,11-dideoxy-6,9-epoxy-12-O-methyl N-(1-methylethyl)-11-oxo-, (2E)-2-butenedioate (2:1)]
average number of defecation days (healthy male volunteers; healthy male volunteers, 5, 10, 20 mg three times a day oral for 10 days, averaged over all GM-611 groups, placebo 6.0): 8.2 | average daily frequency of defecation (healthy male volunteers; healthy male volunteers, 5, 10, 20 mg three times a day oral for 10 days, placebo 0.7): 1.0 | stool condition (healthy male volunteers; healthy male volunteers, GM-611-treated groups vs placebo-treated group): no change | water content of stool (normal rabbits (Kbl:JW); oral 1.25-10 mg/kg GM-611): no change | stool weight (normal rabbits (Kbl:JW); oral 1.25-10 mg/kg, 0 to 4 hours after administration, vs vehicle): dose-dependently increased | antibacterial action [1]: weaker antibacterial action than erythromycin | stool condition (normal dogs (beagle); at first defecation after administration): not diarrhea | time until the first defecation after administration (normal dogs (beagle); intragastric 0.3, 1, 3 mg/kg, 1 hour after feeding): dose-dependently decreased | stool weight at the maximum dose ([2]; GM-611 20 mg/kg oral, 2.5 hours): reached the same level as observed in the morphine-untreated group | morphine-induced defecation dysfunction (stool weight for 2.5 hours after administration) ([2]; feeding stimulation, oral GM-611 1.25-20 mg/kg): dose-dependently improved

CN1CC[C@]23c4c5ccc(O)c4O[C@H]2[C@@H](O)C=C[C@H]3[C@H]1C5 [morphine, reference compound]
defecation enhanced by feeding stimulation (stool weight) ([2]; vs physiological saline): significantly inhibited

sennoside [reference compound]
water content of stools (normal rabbits (Kbl:JW); oral sennoside 12-48 mg/kg): increased dose-dependently | stool weight (normal rabbits (Kbl:JW); oral sennoside 12-48 mg/kg, significant during 4 to 8 hours after administration (delayed)): dose-dependently increased
